Laboratory results taken from ChEMBL document CHEMBL1140152, “Modified peptides as potent inhibitors of the postsynaptic density-95/N-methyl-D-aspartate receptor interaction” (J Med Chem, 2008).
Calls of active or inactive are those of the source. No cut-off for these calls is given here. Where a SMILES comes first, the peptide text is derived from it. [ ]: non-standard residue; d: D form. NMeV = CN[C@H](C(=O)O)C(C)C; NMeS = CN[C@@H](CO)C(=O)O; hSer = N[C@@H](CCO)C(=O)O; Abu = CC[C@H](N)C(=O)O; Aib = CC(C)(N)C(=O)O

Assays:
Disks large homolog 4 [1] = target: T1, Disks large homolog 4 (Homo sapiens, UniProt P78352); assay: Binding affinity to human PSD95 domain PDZ3 expressed in Escherichia coli BL21-DE3 by fluorescence polarization assay
Disks large homolog 4 [2] = target: T1, Disks large homolog 4; assay: Binding affinity to human PSD95 domain PDZ1 expressed in Escherichia coli BL21-DE3 by fluorescence polarization assay
Target sequence in this assay (P78352 whole entry, the tested form may be a part): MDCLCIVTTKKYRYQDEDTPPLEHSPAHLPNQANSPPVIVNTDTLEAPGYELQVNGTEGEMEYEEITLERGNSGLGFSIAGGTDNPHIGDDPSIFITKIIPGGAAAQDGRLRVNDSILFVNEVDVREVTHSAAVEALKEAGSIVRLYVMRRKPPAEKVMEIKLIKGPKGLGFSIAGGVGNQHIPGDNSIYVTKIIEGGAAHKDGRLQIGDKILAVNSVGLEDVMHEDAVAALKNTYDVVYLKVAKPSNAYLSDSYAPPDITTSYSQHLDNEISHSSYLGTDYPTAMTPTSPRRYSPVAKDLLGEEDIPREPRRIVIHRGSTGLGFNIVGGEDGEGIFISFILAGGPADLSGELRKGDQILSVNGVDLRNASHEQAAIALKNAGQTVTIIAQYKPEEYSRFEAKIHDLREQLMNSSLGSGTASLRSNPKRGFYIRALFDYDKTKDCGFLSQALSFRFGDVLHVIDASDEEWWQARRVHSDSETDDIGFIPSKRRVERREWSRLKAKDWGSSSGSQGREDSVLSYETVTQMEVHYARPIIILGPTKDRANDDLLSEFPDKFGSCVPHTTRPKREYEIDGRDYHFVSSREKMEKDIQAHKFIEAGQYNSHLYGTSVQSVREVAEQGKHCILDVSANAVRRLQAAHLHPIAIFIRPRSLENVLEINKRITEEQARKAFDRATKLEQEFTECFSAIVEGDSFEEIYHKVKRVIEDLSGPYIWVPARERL

Disks large homolog 4 [3] = target: T1, Disks large homolog 4; assay: Binding affinity to human PSD95 domain PDZ2 expressed in Escherichia coli BL21-DE3 by fluorescence polarization assay
Target sequence in this assay (P78352 whole entry, the tested form may be a part): as above

Disks large homolog 4 [4] = target: T1, Disks large homolog 4; assay: Binding affinity to human PSD95 domain PDZ1 expressed in Escherichia coli BL21-DE3 by fluorescence polarization assay
Target sequence in this assay (P78352 whole entry, looked up, the tested form may be a part): as the sequence (P78352 whole entry, the tested form may be a part) above

Disks large homolog 4 [5] = target: T1, Disks large homolog 4; assay: Binding affinity to human PSD95 domain PDZ2 expressed in Escherichia coli BL21-DE3 by fluorescence polarization assay
Target sequence in this assay (P78352 whole entry, looked up, the tested form may be a part): as the sequence (P78352 whole entry, the tested form may be a part) above

Molecule | Activity (Disks large homolog 4 [4]) | Activity (Disks large homolog 4 [5]) | other results
CC(C)[C@H](NC(=O)[C@H](C)NC(=O)[C@@H](NC(=O)[C@H](CCC(=O)O)NCCC1CCCCC1)[C@@H](C)O)C(=O)O | – | – | Ki (Disks large homolog 4 [1]): 11000 nM
CN[C@@H](CCC(=O)O)C(=O)N[C@H](C(=O)N[C@@H](C)C(=O)N[C@H](C(=O)O)C(C)C)[C@@H](C)O | – | – | Ki (Disks large homolog 4 [2]): 11000 nM
CC(C)[C@H](NC(=O)[C@H](C)NC(=O)[C@@H](NC(=O)[C@H](CCC(=O)O)NCCc1ccc2ccccc2c1)[C@@H](C)O)C(=O)O | – | – | Ki (Disks large homolog 4 [2]): 1000 nM
CC(C)[C@H](NC(=O)[C@H](C)NC(=O)[C@@H](NC(=O)[C@H](CCC(=O)O)NCCCc1ccc(F)c(F)c1)[C@@H](C)O)C(=O)O | – | – | Ki (Disks large homolog 4 [3]): 1000 nM
CC(C)[C@H](NC(=O)[C@H](C)NC(=O)[C@@H](NC(=O)[C@H](CCC(=O)O)NCC1CCCCC1)[C@@H](C)O)C(=O)O | – | – | Ki (Disks large homolog 4 [2]): 1000 nM
CC[C@H](C)[C@H](NC(=O)[C@H](CO)NC(=O)[C@H](CO)NC(=O)[C@H](CC(C)C)NC(=O)[C@H](CCCCN)NC(=O)[C@H](CCCNC(=N)N)NC(=O)[C@H](CCCNC(=N)N)NC(=O)[C@H](CCCNC(=N)N)NC(=O)[C@H](CCC(N)=O)NC(=O)[C@H](CCCNC(=N)N)NC(=O)[C@H](CCCNC(=N)N)NC(=O)[C@H](CCCCN)NC(=O)[C@H](CCCCN)NC(=O)[C@H](CCCNC(=N)N)NC(=O)CNC(=O)[C@@H](N)Cc1ccc(O)cc1)C(=O)N[C@@H](CCC(=O)O)C(=O)N[C@@H](CO)C(=O)N[C@@H](CC(=O)O)C(=O)N[C@H](C(=O)O)C(C)C | – | – | Activity (Disks large homolog 4 [1]): inactive
CC(C)[C@@H](C(=O)O)N(C)C(=O)[C@H](CC(=O)O)NC(=O)[C@H](CO)NC(=O)[C@@H](N)CCC(=O)O (H-ESD[NMeV]-OH) | inactive | inactive | –
CC(C)[C@H](NC(=O)[C@H](CC(=O)O)NC(=O)[C@H](CCO)NC(=O)[C@@H](N)CCC(=O)O)C(=O)O (H-E[hSer]DV-OH) | inactive | inactive | –
H-KSGYEKLSSIESDV-OH | – | – | Activity (Disks large homolog 4 [1]): inactive

Continued, in another order:

Activity (Disks large homolog 4 [4]) | Activity (Disks large homolog 4 [5]) | Molecule | other results
inactive | inactive | CC(C)[C@H](NC(=O)[C@H](CC(=O)O)NC(=O)[C@@H](NC(=O)[C@@H](N)CCC(=O)O)C(C)(C)CO)C(=O)O | –
inactive | inactive | CC(C)[C@H](NC(=O)[C@H](CC(=O)O)NC(=O)[C@@H](NC(=O)[C@@H](N)CCC(=O)O)[C@H](C)CO)C(=O)O | –
– | inactive | CC[C@H](NC(=O)[C@H](CC(=O)O)NC(=O)[C@H](CO)NC(=O)[C@@H](N)CCC(=O)O)C(=O)O (H-ESD[Abu]-OH) | –
inactive | inactive | CC(C)(NC(=O)[C@H](CC(=O)O)NC(=O)[C@H](CO)NC(=O)[C@@H](N)CCC(=O)O)C(=O)O (H-ESD[Aib]-OH) | –
inactive | inactive | CC(C)[C@H](NC(=O)[C@H](CC(=O)O)NC(=O)[C@H](CO)N(C)C(=O)[C@@H](N)CCC(=O)O)C(=O)O (H-E[NMeS]DV-OH) | –
